The test system of experiment [1] is RD-sgACSL4^+/+ and RD-sgACSL4^−/− cells. In words: Lipid peroxidation (BODIPY 581/591-C11) in RSL3-treated RD-sgACSL4+/+ control and RD-sgACSL4−/− knockout cells. The conditions noted are these: 1 μM RSL3, 36 hours, FIG. 9 upper panel.
Procedure: Specifically, the RD-sgACSL4^−/− knockout and RD-sgACSL4^+/+ control cells were seeded in 12-well plates at a concentration of 1×10^5 cells per well.
(§1) Next, the treated cells and the infected cells were stained by incubating with 1 μM BODIPY™ 581/591-C11 (Invitrogen) at 37° C. for 30 minutes, and then collected using trypsin (Gibco). Thereafter, the stained cells were subjected to centrifugation at 300 g for 10 minutes to remove trypsin and the cell culture media, and then resuspended in 500 μL of fresh PBS. Subsequently, at least 10000 cells per sample were subjected to flow cytometry analysis using Attune NxT flow cytometer (Invitrogen), and FlowJo software was used for viewing and analyzing the thus obtained data. The BODIPY™ 581/591-C11 levels in the control groups (i.e., DMSO-treated cells and mock-infected cells) were set as 100%.
Experiment [2] relates to RD cells. Nature of the experiment: Lipid peroxidation (BODIPY 581/591-C11, flow cytometry) in RSL3-treated RD cells pretreated with ferroptosis inhibitors.
Procedure: as §1
Wild-type RD cells were seeded in 12-well plates at a concentration of 1×10^5 cells per well. […] Subsequently, the pretreated cells were treated with 1 μM of RSL3 for 36 hours, or the same amount of DMSO serving as control group for comparison purpose.
Thereafter, these cells were subjected to staining with BODIPY™ 581/591-C11 (Invitrogen) and flow cytometry analysis according to the experimental procedures as described in the preceding sub-section, entitled “A. Determining lipid peroxidation level in virus-infected cells,” of this Example. The BODIPY™ 581/591-C11 levels in the control groups (i.e., DMSO-treated cells and mock-infected cells) were set as 100%.
Experiment [3] concerns CV-A6. It counts as cell-based, Coxsackie virus A6. The conditions noted are these: pretreated 1 hour with ferrostatin-1 100 μM or troglitazone 20 μM; m.o.i. 0.01; 24, 36, 48 h.p.i.; FIG. 14.
The test system of experiment [4] is CV-A6. It counts as cell-based, Coxsackie virus A6. The conditions noted are these: pretreated 1 hour at 0-120 μM, CV-A6 m.o.i. 0.01, 36 h.p.i.; FIG. 12.
In experiment [5] the test system is HCoV-229E. In words: Cell viability of HCoV-229E-infected LLC-MK2 cells (CellTiter96 Aqueous One Solution). The experiment is classed as cell-based, human coronavirus 229E. The conditions noted are these: pretreated 1 hour at 0-120 μM, HCoV-229E m.o.i. 0.01, 7 d.p.i.; FIG. 13. The method, then: Wild-type RD cells and LLC-MK2 cells were seeded at a concentration of 2000 cells per well into respective wells of 96-well plates containing DMEM and 10% FBS. […] Mock-infected RD and LLC-MK2 cells served as control groups. CV-A6-infected and mock-infected RD cells, and HCoV-229E-infected and mock-infected LLC-MK2 cells were subjected to cell viability determination using CellTiter96 Aqueous One Solution Cell Proliferation Assay (Promega).

The test system of experiment [6] is HCoV-229E. In words: Virus titer of HCoV-229E in infected LLC-MK2 cells (viral plaque assay). The settings on record: pretreated 1 hour with ferrostatin-1 40 μM or troglitazone 10 μM; m.o.i. 0.01; 1, 2, 3 d.p.i.; FIG. 15 upper panel.
The test system of experiment [7] is HCoV-OC43. Nature of the experiment: Virus titer of HCoV-OC43 in infected Vero E6 cells (viral plaque assay). The settings on record: pretreated 1 hour with ferrostatin-1 40 μM or troglitazone 10 μM; m.o.i. 0.01; 1, 2, 3 d.p.i.; FIG. 15 lower panel.
Experiment [8] concerns CV-A6-infected RD cells. The experiment is classed as cell-based, human. The conditions noted are these: wild-type RD cells pretreated 1 hour with ferrostatin-1 100 μM or troglitazone 20 μM, then CV-A6 m.o.i. 0.01 for 36 hours; vs mock-infected; FIG. 11 lower panel.

As to `COC(=O)c1ccc([C@@H]2c3[nH]c4ccccc4c3C[C@@H](C(=O)OC)N2C(=O)CCl)cc1` [RSL3], in experiment [1] (RD-sgACSL4^+/+ control cells), the “Induction of lipid peroxidation in cells with normal ACSL4 expression” value is reported as “effectively induce lipid peroxidation”. The “Induction of lipid peroxidation in ACSL4 knockout cells” value in experiment [1] (RD-sgACSL4^−/− knockout cells) is “unable to induce lipid peroxidation”. In addition, the “Lipid peroxidation level in RSL3-treated cells compared with DMSO-treated cells” value in experiment [2] (wild-type RD cells, 1 μM RSL3, 36 hours, FIG. 11) is “significant increase”.

Consider `CCOC(=O)c1ccc(NC2CCCCC2)c(N)c1` [ferrostatin-1], for which the “Viral yields (virus titer) of CV-A6 in infected RD cells vs DMSO control group” value in experiment [3] is reported as “significantly lower”. Also, the “Cell viability of CV-A6-infected RD cells” value in experiment [4] was “increasing cell viability”. For the same molecule, in experiment [5], the “Cell viability of HCoV-229E-infected LLC-MK2 cells” value is “increasing cell viability”. The “RSL3-induced increase in lipid peroxidation level (relative BODIPY 581/591-C11 level)” value in experiment [2] (wild-type RD cells pretreated 1 hour with ferrostatin-1 100 μM or troglitazone 20 μM, then 1 μM RSL3 for 36 hours, vs DMSO control, FIG. 11 upper panel) is recorded as “significantly diminished”. For the same molecule, in experiment [6], the “Viral yields (virus titer) of HCoV-229E in infected LLC-MK2 cells vs DMSO control group” value is recorded as “significantly lower”. Besides, the “Viral yields (virus titer) of HCoV-OC43 in infected Vero E6 cells vs DMSO control group” value in experiment [7] is “significantly lower”. Besides, the “CV-A6-induced increase in lipid peroxidation level (relative BODIPY 581/591-C11 level)” value in experiment [8] is recorded as “significantly diminished”.

The values are drawn from patent US11679102B2, “Method for inhibiting virus infection and replication” (Chang Gung University, priority 2020, dated 2023).
